From patent US6737383B1, “Herbicidal oxadiazolidines” (priority 1999, dated 2004)

Tests used:
blackgrass = assay: Test B pre/postemergence blackgrass; assay type: in vivo, Alopecurus myosuroides
How it was run: (§1)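 Test chemicals in a non-phytotoxic solvent mixture with surfactant were sprayed preemergence onto planted seeds and postemergence onto plants 2 to 18 cm tall (1- to 4-leaf stage). After twelve to sixteen days in a greenhouse, injury was visually rated against untreated controls from 0 (no effect) to 10 (complete control).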

sugar beet = assay: Test B pre/postemergence sugar beet; assay type: in vivo, Beta vulgaris
How it was run: as §1

crabgrass = assay: Test B pre/postemergence crabgrass; assay type: in vivo, Digitaria sanguinalis
How it was run: as §1

giant foxtail = assay: Test B pre/postemergence giant foxtail; assay type: in vivo, Setaria faberii
How it was run: as §1

bedstraw = assay: Test B pre/postemergence bedstraw; assay type: in vivo, Galium aparine
How it was run: as §1

rice = assay: Test B flood test rice; assay type: in vivo, Oryza sativa
How it was run: (§2)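 Read-out is a visual response score from 0 (no effect) to 10 (complete control), assigned by comparison with untreated controls. Treatment was applied at the 2-leaf stage, and plants stayed in the greenhouse for twelve to sixteen days before scoring.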

purple nutsedge = assay: Test B pre/postemergence purple nutsedge; assay type: in vivo, Cyperus rotundus
How it was run: as §1

bamyardgrass = assay: Test B flood test barnyardgrass; assay type: in vivo, Echinochloa crus-galli
How it was run: as §2

pigweed = assay: Test B pre/postemergence pigweed; assay type: in vivo, Amaranthus retroflexus
How it was run: as §1

morningglory = assay: Test B pre/postemergence morningglory; assay type: in vivo, Ipomoea hederacea
How it was run: as §1

surinam grass = assay: Test B pre/postemergence surinam grass; assay type: in vivo, Brachiaria decumbens
How it was run: as §1

wheat = assay: Test B pre/postemergence wheat; assay type: in vivo, Triticum aestivum
How it was run: as §1

corn = assay: Test B pre/postemergence corn; assay type: in vivo, Zea mays
How it was run: as §1

wild oat = assay: Test B pre/postemergence wild oat; assay type: in vivo, Avena fatua
How it was run: as §1

smallflower flatsedge = assay: Test B flood test smallflower flatsedge; assay type: in vivo, Cyperus difformis
How it was run: as §2

rape = assay: Test B pre/postemergence rape; assay type: in vivo, Brassica napus
How it was run: as §1

[1] = Postemergence, Rate 62 g/ha, scale 0 to 10, 0 is no effect, 10 is complete control
[2] = Postemergence, Rate 125 g/ha, scale of 0 to 10 where 0 is no effect and 10 is complete control
[3] = Postemergence, Rate 250 g/ha, scale of 0 to 10, 0 is no effect, 10 is complete control
[4] = Postemergence, Rate 500 g/ha, scale of 0 to 10 where 0 is no effect and 10 is complete control
[5] = Preemergence, Rate 62 g/ha, scale 0 to 10 (0 no effect, 10 complete control)
[6] = Preemergence, Rate 125 g/ha, scale of 0 to 10 where 0 is no effect and 10 is complete control
[7] = Preemergence, Rate 500 g/ha, scale of 0 to 10 where 0 is no effect and 10 is complete control
[8] = Rate 62 g/ha, flood test species, Pre-emergence, visual evaluation after twelve to sixteen days
[9] = Rate 125 g/ha, under heading Pre-emergence, flood test species, visual evaluation after twelve to sixteen days
[10] = Rate 250 g/ha, Pre-emergence (flood test species), scale 0 to 10, 0 is no effect, 10 is complete control
[11] = Rate 500 g/ha, Pre-emergence section of Table B, 0 to 10 scale (0 no effect, 10 complete control)

## CCC(C)n1c(=O)on(C(=O)N(c2ccccc2)C(C)C)c1=O (centres unmarked) [Compound 611]
blackgrass; [1]
  Plant response rating, Blackgrass: 7
blackgrass; [2]
  Plant response rating, Blackgrass: 9
blackgrass; [3]
  Blackgrass plant response rating: 9
blackgrass; [4]
  Plant response rating, Blackgrass: 9
blackgrass; [5]
  Blackgrass plant response rating: 9
blackgrass; [6]
  Blackgrass plant response rating: 9
blackgrass; Preemergence, Rate 250 g/ha
  Blackgrass plant response rating (0 to 10 scale): 10
blackgrass; [7]
  Blackgrass plant response rating: 10
Sugar beet; [1]
  Plant response rating, Sugarbeets: 0
Sugar beet; [2]
  Plant response rating, Sugarbeets: 0
Sugar beet; [3]
  Sugarbeets plant response rating: 0
Sugar beet; [4]
  Plant response rating, Sugarbeets: 2
Sugar beet; [5]
  Sugarbeets plant response rating: 2
Sugar beet; [6]
  Sugarbeets plant response rating: 2
Sugar beet; [7]
  Plant response rating, Sugarbeets: 6
crabgrass; [1]
  Plant response rating, Crabgrass: 8
crabgrass; [2]
  Plant response rating, Crabgrass: 8
crabgrass; [3]
  Crabgrass plant response rating: 9
crabgrass; [4]
  Plant response rating, Crabgrass: 9
crabgrass; [5]
  Crabgrass plant response rating: 9
crabgrass; [6]
  Crabgrass plant response rating: 10
crabgrass; [7]
  Plant response rating, Crabgrass: 10
Giant foxtail; [1]
  Plant response rating, Giant foxtail: 8
Giant foxtail; [2]
  Plant response rating, Giant foxtail: 8
Giant foxtail; [3]
  Giant foxtail plant response rating: 9
Giant foxtail; [4]
  Plant response rating, Giant foxtail: 9
Giant foxtail; [5]
  Giant foxtail plant response rating: 10
Giant foxtail; [6]
  Giant foxtail plant response rating: 10
Giant foxtail; [7]
  Plant response rating, Giant foxtail: 10
bedstraw; [3]
  Bedstraw plant response rating: 6
bedstraw; [4]
  Plant response rating, Bedstraw: 9
bedstraw; [5]
  Bedstraw plant response rating: 1
bedstraw; [6]
  Bedstraw plant response rating: 1
bedstraw; [7]
  Bedstraw plant response rating: 10
rice; [8]
  Plant response rating, Rice (0 to 10 scale, 0 is no effect, 10 is complete control): 0
rice; [9]
  Rice plant response rating (0 to 10 scale, 0 is no effect, 10 is complete control): 0
rice; [10]
  Rice plant response rating: 0
rice; [11]
  Rice plant response rating: 2
Purple nutsedge; [1]
  Plant response rating, Nutsedge: 0
Purple nutsedge; [2]
  Plant response rating, Nutsedge: 0
Purple nutsedge; [3]
  Nutsedge plant response rating: 3
Purple nutsedge; [4]
  Plant response rating, Nutsedge: 3
Purple nutsedge; [5]
  Nutsedge plant response rating: 0
Purple nutsedge; [6]
  Nutsedge plant response rating: 0
Purple nutsedge; [7]
  Plant response rating, Nutsedge: 2
bamyardgrass; [8]
  Plant response rating, Barnyardgrass (0 to 10 scale, 0 is no effect, 10 is complete control): 0
bamyardgrass; [9]
  Barnyardgrass plant response rating (0 to 10 scale, 0 is no effect, 10 is complete control): 0
bamyardgrass; [10]
  Barnyardgrass plant response rating: 0
bamyardgrass; [11]
  Barnyardgrass plant response rating: 5
pigweed; [1]
  Plant response rating, Redroot pigweed: 0
pigweed; [2]
  Plant response rating, Redroot pigweed: 2
pigweed; [3]
  Redroot pigweed plant response rating: 3
pigweed; [4]
  Plant response rating, Redroot pigweed: 8
pigweed; [5]
  Redroot pigweed plant response rating: 6
pigweed; [6]
  Redroot pigweed plant response rating: 8
pigweed; [7]
  Plant response rating, Redroot pigweed: 10
morningglory; [1]
  Plant response rating, Morningglory: 7
morningglory; [2]
  Plant response rating, Morningglory: 8
morningglory; [3]
  Morningglory plant response rating: 8
morningglory; [4]
  Plant response rating, Morningglory: 8
morningglory; [5]
  Morningglory plant response rating: 0
morningglory; [6]
  Morningglory plant response rating: 0
morningglory; [7]
  Plant response rating, Morningglory: 6
Surinam grass; [1]
  Plant response rating, B. signalgrass: 0
Surinam grass; [2]
  Plant response rating, B. signalgrass: 3
Surinam grass; [3]
  B. signalgrass plant response rating: 7
Surinam grass; [4]
  Plant response rating, B. signalgrass: 8
Surinam grass; [5]
  B. signalgrass plant response rating: 7
Surinam grass; [6]
  B. signalgrass plant response rating: 7
Surinam grass; Preemergence, Rate 250 g/ha
  B. signalgrass plant response rating (0 to 10 scale, 0 is no effect, 10 is complete control): 10
Surinam grass; [7]
  B. signalgrass plant response rating: 10
wheat; [1]
  Plant response rating, Wheat: 0
wheat; [2]
  Plant response rating, Wheat: 0
wheat; [3]
  Wheat plant response rating: 2
wheat; [4]
  Plant response rating, Wheat: 8
wheat; [5]
  Wheat plant response rating: 1
wheat; [6]
  Wheat plant response rating: 3
wheat; [7]
  Plant response rating, Wheat: 7
corn; [1]
  Plant response rating, Corn: 0
corn; [2]
  Plant response rating, Corn: 0
corn; [3]
  Corn plant response rating: 4
corn; [4]
  Plant response rating, Corn: 6
corn; [5]
  Corn plant response rating: 2
corn; [6]
  Corn plant response rating: 3
corn; Preemergence, Rate 250 g/ha
  Corn plant response rating (0 to 10 scale): 9
corn; [7]
  Plant response rating, Corn: 9
Wild oat; [1]
  Plant response rating, Wild oats: 0
Wild oat; [2]
  Plant response rating, Wild oats: 2
Wild oat; [3]
  Wild oats plant response rating: 4
Wild oat; [4]
  Plant response rating, Wild oats: 7
Wild oat; [5]
  Wild oats plant response rating: 5
Wild oat; [6]
  Wild oats plant response rating: 7
Wild oat; [7]
  Plant response rating, Wild oats: 8
Smallflower flatsedge; [8]
  Plant response rating, S. Flatsedge (0 to 10 scale, 0 is no effect, 10 is complete control): 0
Smallflower flatsedge; [9]
  S. Flatsedge plant response rating (0 to 10 scale, 0 is no effect, 10 is complete control): 0
Smallflower flatsedge; [10]
  S. Flatsedge plant response rating: 0
Smallflower flatsedge; [11]
  S. Flatsedge plant response rating: 0
rape; [1]
  Plant response rating, Rape: 0
rape; [2]
  Plant response rating, Rape: 0
rape; [3]
  Rape plant response rating: 2
rape; [4]
  Plant response rating, Rape: 3
rape; [5]
  Rape plant response rating: 3
rape; [6]
  Rape plant response rating: 3
rape; [7]
  Plant response rating, Rape: 10
